Experimental data as given in patent US8999956B2, “N-[(het)arylalkyl)] pyrazole(thio)carboxamides and their heterosubstituted analogues” (Bayer Intellectual Property GmbH, priority 2010, dated 2015).
Read-outs that look alike come from different tables or passages of the source.

How the values were obtained:
[1] = tested on: aflatoxines produced by Aspergillus parasiticus; test: microbe, parasite or virus in culture; format: cell-based
[2] = tested on: Cochliobolus miyabeanus; test: In vivo protective test on Cochliobolus miyabeanus (rice); details: Table M, 250 ppm of active ingredient, evaluated 4 days after inoculation
[3] = tested on: Fusarium nivale (var. majus); test: In vivo preventive test on Fusarium nivale (wheat); details: 500 ppm of active ingredient, evaluated 5 days after inoculation
Procedure: (§1) Solvent: 49 parts by weight of N,N-dimethylacetamide Emulsifier: 1 part by weight of alkylaryl polyglycol ether To produce a suitable preparation of active compound, 1 part by weight of active compound or active compound combination is mixed with the stated amounts of solvent and emulsifier, and the concentrate is diluted with water to the desired concentration. To test for preventive activity, young plants are sprayed with the preparation of active compound or active compound combination at the stated rate of application. After the spray coating has been dried, the plants are slightly injured by using a sandblast and afterwards they are sprayed with a conidia suspension of Fusarium nivale (var. majus).

[4] = tested on: Pyrenophora teres; test: In vivo preventive test on Pyrenophora teres (barley); details: 500 ppm of active ingredient, evaluated 7-9 days after inoculation
Method in brief: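 Preventive test: young barley plants received a water-diluted spray of compound formulated with DMF solvent plus alkylaryl polyglycol ether emulsifier, at the stated rate. Inoculation with an aqueous spore suspension of Pyrenophora teres followed one day after spraying.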

[5] = tested on: Sphaerotheca fuliginea; test: In vivo preventive test on Sphaerotheca fuliginea (cucumber); details: 500 ppm of active ingredient, evaluated 7 days after inoculation
Method in brief: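 Young cucumber plants sprayed with compound (in DMF with alkylarylpolyglycolether emulsifier, diluted in water) at the stated application rate. Inoculated one day later with aqueous Sphaerotheca fuliginea spore suspension. Plants then held in greenhouse at approximately 23° C and approximately 70% relative humidity.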

[6] = tested on: Septoria tritici; test: In vivo preventive test on Septoria tritici (wheat); details: 500 ppm of active ingredient, evaluated 21 days after inoculation
Procedure: as §1, with “are” for “are slightly injured by using a sandblast and afterwards they are”, “spore” for “conidia”, “Septoria tritici.” for “Fusarium nivale (var. majus).”

[7] = log P by HPLC on reversed-phase column (EEC Directive 79/831 Annex V.A8); format: physicochemical
Procedure: In table 1, the log P values were determined in accordance with EEC Directive 79/831 Annex V.A8 by HPLC (High Performance Liquid Chromatography) on a reversed-phase column (C18), using the method described below: Temperature: 40° C.; […]

[8] = tested on: Aspergillus parasiticus; test: microbe, parasite or virus in culture; format: cell-based
[9] = tested on: Pyricularia oryzae; details: in vivo
[10] = tested on: Puccinia triticina; test: In vivo preventive test on Puccinia triticina (wheat)
[11] = tested on: Venturia inaequalis; test: In vivo preventive test on Venturia inaequalis (apple scab); details: 100 ppm of active ingredient, evaluated 10 days after inoculation
Procedure: (§2) Solvent: 24.5 parts by weight of acetone • 24.5 parts by weight of N,N-dimethylacetamide Emulsifier: 1 part by weight of alkylaryl polyglycol ether To produce a suitable preparation of active compound, 1 part by weight of active compound is mixed with the stated amounts of solvent and emulsifier, and the concentrate is diluted with water to the desired concentration. To test for preventive activity, young plants are sprayed with the preparation of active compound at the stated rate of application.

[12] = tested on: Uromyces appendiculatus; test: In vivo preventive test on Uromyces appendiculatus (beans); details: 100 ppm of active ingredient, evaluated 10 days after inoculation
Procedure: as §2

[13] = tested on: Leptosphaeria nodorum; test: In vivo preventive test on Leptosphaeria nodorum (wheat); details: 500 ppm of active ingredient, evaluated 7-9 days after inoculation
Method in brief: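 Plants were inoculated with aqueous L. nodorum spores one day after a protective spray. The spray contained the compound at the stated rate, as a water-diluted concentrate in N,N-dimethylacetamide plus alkylaryl polyglycol ether emulsifier.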

[14] = tested on: Blumeria graminis fsp. hordei; test: In vivo preventive test on Blumeria graminis (barley); details: 500 ppm of active ingredient, evaluated 7 days after inoculation
Procedure: as §1, with “dusted” for “slightly injured by using a sandblast and afterwards they are sprayed”, “spores” for “a conidia suspension”, “Blumeria graminis fsp. hordei.” for “Fusarium nivale (var. majus).”

[15] = tested on: Alternaria solani; test: In vivo preventive test on Alternaria solani (tomato); details: 500 ppm of active ingredient, evaluated 7 days after inoculation
Method in brief: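 Preventive set-up: Alternaria solani spores, as aqueous suspension, applied to young plants one day after spraying. Spray contained active compound formulated with N,N-dimethylformamide and emulsifier, water-diluted to the desired application rate.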

[16] = tested on: Botrytis cinerea; test: In vivo preventive test on Botrytis cinerea (beans)
Procedure: Solvent: 24.5 parts by weight of acetone • 24.5 parts by weight of N,N-dimethylacetamide
Emulsifier: 1 part by weight of alkylaryl polyglycol ether
To produce a suitable preparation of active compound, 1 part by weight of active compound is mixed with the stated amounts of solvent and emulsifier, and the concentrate is diluted with water to the desired concentration.
To test for preventive activity, young plants are sprayed with the preparation of active compound. After the spray coating has dried on, 2 small pieces of agar covered with growth of Botrytis cinerea are placed on each leaf. The inoculated plants are placed in a darkened chamber at 20° C. and a relative atmospheric humidity of 100%.
2 days after the inoculation, the size of the lesions on the leaves is evaluated. 0% means an efficacy which corresponds to that of the untreated control, while an efficacy of 100% means that no disease is observed.

[17] = tested on: Phakopsora pachyrhizi; test: In vivo protective test on Phakopsora pachyrhizi (soybeans); details: Table N, 250 ppm of active ingredient, evaluated 11 days after inoculation
[18] = Table K, 500 ppm of active ingredient, evaluated 8 days after inoculation
[19] = Table L, 500 ppm of active ingredient, lesion size 2 days after inoculation
[20] = 500 ppm of active ingredient, lesion size 2 days after inoculation

Structure (SMILES)	% Inhibition of Aflatoxin at 50 μM [1]	Efficacy [3]	Efficacy [4]	Efficacy [5]	Efficacy [6]	logP [7]	% Inhibition of fungal growth at 50 μM [8]	Efficacy [10, 18]	Efficacy [11]	Efficacy [12]	Efficacy [13]	Efficacy [14]	Efficacy [15]	Efficacy [16, 19]	Efficacy [17]	further results
CC(CCc1c(Cl)cc(Cl)cc1Cl)NC(=O)c1c(C(F)F)nn(C)c1Cl (stereo not drawn) [Example 216]	100%	93%	100%	100%	100%	4.53	100%	78%								Efficacy [2]: 90%; Efficacy [9]: 95%
CC(CCc1ccc(Cl)cc1Cl)N(C(=O)c1c(C(F)F)nn(C)c1F)C1CC1 (stereo not drawn) [Example 184]	100%	100%	100%	100%	100%	4.56	100%	90%	100%	100%	95%	100%	90%			
Cn1nc(C(F)F)c(C(=O)N(CC2CCCCC2c2ccc(Cl)cc2Cl)C2CC2)c1F (stereo not drawn) [Example 242]	100%		100%	100%		5.31	100%	100%	100%	100%			100%	95%	99%	
Cn1nc(C(F)F)c(C(=O)NC2CCCCC2CCC(C)(C)C)c1F (single isomer, unassigned) [Example 358]		100%	100%	100%	80%	4.51 isomer B		100%	100%			100%	100%		95%	
CC(C)CCC1CCCCC1NC(=O)c1c(C(F)F)nn(C)c1F (stereo not drawn) [Example 333]	100%	100%	100%	100%	100%	4.22	92%	90%	99%		80%	100%	100%		97%	
Cn1nc(C(F)F)c(C(=O)N(CC2CCCCC2c2ccccc2)C2CC2)c1F (stereo not drawn) [Example 240]	100%	71%	100%		100%	4.31	98%	95%	100%	100%	70%	100%	100%	95%	85%	Efficacy [16, 20]: at least 95%; Efficacy ([16]; Table L2, dose 500 ppm, comparison with des-fluoro analogues): 95%
Cn1nc(C(F)F)c(C(=O)NC2CCCC(CCC(C)(C)C)C2)c1F (stereo not drawn) [Example 324, 3-(difluoromethyl)-N-[3-(3,3-dimethylbutyl)cyclohexyl]-5-fluoro-1-methyl-1H-pyrazole-4-carboxamide]		100%	94%										90%			Efficacy [2]: 97%; chromatographic logP ([7]; log P): 4.8; chromatographic logP ([7]; logP): 4.8; pest or weed control at 500 ppm ([10]; Puccinia triticina, 192 h, Table K, 500 ppm of active ingredient, evaluated 8 days after inoculation, read-out: Efficacy): 100%
CC(C)CC(C)C1CCCCC1NC(=O)c1c(C(F)F)nn(C)c1Cl (single isomer, unassigned) [Example 334]	100%	93%			100%	4.75 isomer A			100%	100%		90%			100%	% Inhibition of fungal growth at 50 μM ([8]; 50 µM): 90%
CC(N(C(=O)c1c(C(F)F)nn(C)c1F)C1CC1)C(C)(C)Cc1ccccc1 (stereo not drawn) [Example 9]		100%	100%	95%	100%	4.06			100%	94%	100%	100%	90%	100%		
Cn1nc(C(F)F)c(C(=O)N(CC2CCCCC2c2ccccc2Cl)C2CC2)c1F (stereo not drawn) [Example 241]	100%		100%	100%	100%	4.67	97%	100%	100%	100%	80%		100%	99%	99%	
Cn1nc(C(F)F)c(C(=O)NC2CCCCC2CC[Si](C)(C)C)c1F (stereo not drawn) [Example 353]	99%	100%	95%		80%	4.70	85%	70%	99%			90%	95%		85%	
Cn1nc(C(F)F)c(C(=O)N(C2CC2)C2CCCC(c3ccccc3)C2)c1F (stereo not drawn) [Example 256]	96%	100%	100%		100%	4.01	79%	95%	100%	100%	95%		93%	93%	85%	Efficacy [16, 20]: at least 90%; Efficacy ([16]; Table L5, dose 500 ppm, comparison with des-fluoro analogues): 93%; Efficacy ([10]; 500 ppm of active ingredient, evaluated 8 days after inoculation): at least 95%; Efficacy ([10]; Table K5, dose 500 ppm, comparison with des-fluoro analogues): 95%
CC(CC(C)(C)C)C1CCCCC1NC(=O)c1c(C(F)F)nn(C)c1F (single isomer, unassigned) [Example 360]	100%	86%	95%	100%	90%	4.85 isomer A		100%	100%			100%	95%			Efficacy [2]: 94%; % Inhibition of fungal growth at 50 μM ([8]; 50 µM): 96%
